Patent US20260364124A1, “ANTI-C. DIFFICILE SMALL MOLECULE METABOLITES FROM DIET AND GUT MICROBIOME” (The Children's Medical Center Corporation, priority 2023, published 2026)
“Also recorded” adds a separate entry of the source.

Key:
B. uniformis = test: In vitro aglycone liberation by wildtype B. uniformis (LC-MS); parameters: species or system Bacteroides uniformis ATCC 8492; details: role: substrate; B. uniformis cultivated with polydatin (FIG. 2)
From the text: Comparative LC-MS EICs (Extracted Ion Chromatogram) of methanol-water extracts of bacterial cultures supplemented with each polyphenolic glycoside after eight hours are provided. The trace labeled “A” corresponds to the EIC of each glycoside, and the trace labeled “B” corresponds to the EIC of each aglycone. The portion of the trace “B” peak overlapping the trace “A” peak corresponds to the aglycone detected from fragmentation of the glycoside at the ionization source and is a technical artifact.
FIGS. 5A and 5B show microbiome-mediated polyphenol aglycone liberation. […] Step 2: Spent media was filter-sterilized. Step 3: C. difficile was grown in spent media from either vehicle or polydatin (top).
In vitro aglycone liberation: All B. uniformis strains were grown on brain-heart-infusion supplemented with hemin (50 mg/L) and vitamin K1 (0.25 mg/L) (BHIS) agar plates or in basal media (BSG; proteose peptone (20 g/L), yeast (5 g/L), NaCl (5 g/L), glucose (5 g/L), potassium phosphate dibasic (5 g/L), cysteine (0.5 g/L), hemin (50 mg/L), and vitamin K1 (0.25 mg/L). All isolates were recovered on and grown in pre-reduced media in a Coy anaerobic chamber (Coy Labs).
To assess the capacity of Bacteroides to liberate aglycones from their parent polyphenolic glycosides, B. uniformis ATCC 8492 WT and AgshD were recovered on a BHIS agar plate and incubated anaerobically at 37 °C for 48 h. A starter culture (1 mL) of BSG was inoculated with each isolate and grown for 15 h. This starter culture was then used to inoculate a BSG sub-culture (1 mL) at a final dilution of 1:10. […]
For polyphenolic glycoside and aglycone-containing samples, samples were dried under nitrogen flow and resuspended in 50 μl of methanol 50% in water. […] Samples were quantified on a QEplus mass spectrometer coupled to an Ultimate 3000 LC (Thermo fisher). […] Quantification was performed using Tracefinder (Thermo fisher), using the ratio of the area under the peak for each compound and of the internal standard, using the accurate mass of the [M−H]^− ions.

C. difficile isolates = test: Phytochemical microbial killing assay, diverse C. difficile isolates; type: cell-based, Clostridioides difficile
Description: FIG. 3B provides a heatmap of growth of 20 Clostridioides difficile isolates in the absence of presence of the polyphenolic glycoside polydatin or the Bacteroides liberated aglycone resveratrol. […] Growth induction or inhibition is measured as the ratio of growth in media (AUC) supplemented with glucose and 150 μM polydatin or resveratrol versus growth in media (AUC) supplemented with glucose and vehicle. Value>1 is representative of enhanced growth in compound and value <1 is representative of inhibition of growth in compound.
Bacterial isolates were grown in vitro in media plus compound. Killing was measured by bacterial culture optical density (proxy for amount of bacteria in a culture).
Phytochemical microbial killing assays: All gut pathogen isolates were grown on brain-heart-infusion supplemented with hemin (50 mg/L) and vitamin K1 (0.25 mg/L) (BHIS) agar plates or in basal media (BSG; proteose peptone (20 g/L), yeast (5 g/L), NaCl (5 g/L), glucose (5 g/L), potassium phosphate dibasic (5 g/L), cysteine (0.5 g/L), hemin (50 mg/L), and vitamin K1 (0.25 mg/L). Isolates were recovered on and grown in pre-reduced media in a Coy anaerobic chamber (Coy Labs). To determine the fitness effects of phloridzin hydrate (TCI), phloretin (TCI), polydatin (TCI), and resveratrol (TCI) on enteric pathogen fitness, each pathogen isolate was recovered on a BHIS agar plate and incubated anaerobically at 37 °C for 48 h. A starter culture (1 mL) of BSG was inoculated with C. difficile and grown for 15 h. This starter culture was then used to inoculate a BSG sub-culture (1 mL) at a final dilution of 1:10. This sub-culture was grown for 3 h to an OD600~0.5 before being used to inoculate experimental cultures at a final dilution of 1:50. The experimental media consisted of a modified YCFA media (mYCFA; casitone (2.5 g/L), yeast extract (0.625 g/L), cysteine (0.5 g/L), magnesium sulfate heptahydrate (f.c. 365 μM), calcium chloride dihydrate (f.c. 610 μM), sodium bicarbonate (4 g/L), dipotassium phosphate (0.45 g/L), monopotassium phosphate (0.45 g/L), sodium chloride (0.9 g/L), sodium acetate (2.71 g/L), Hemin (50 mg/L), Vitamin K1 (0.25 mg/L), ferrous sulfate (4 μg/mL), ATCC vitamin mix (1% v/v)) supplemented with glucose (15 mM, Sigma) plus each compound (150 μM) or glucose (15 mM, Sigma) plus DMSO (0.15%, Sigma). Bacterial growth was monitored by measuring the optical density at 600 nm (OD600) of each culture in a 384 well plate with an Epoch2 spectrophotometer (BioTek Instruments) and MicroPlate stacker (Agilent BioTek) for 24 hours.

## OC[C@H]1O[C@@H](Oc2cc(O)cc(/C=C/c3ccc(O)cc3)c2)[C@H](O)[C@@H](O)[C@@H]1O [polydatin]
B. uniformis
  liberation of resveratrol from polydatin: liberated resveratrol
C. difficile isolates; 150 μM, 20 C. difficile isolates, growth ratio (AUC) vs vehicle (FIG. 3B)
  growth inhibition of Clostridioides difficile: did not; also recorded: but not its parent glycoside polydatin
C. difficile isolates; in vitro, media plus compound, culture optical density (FIG. 4)
  killing / growth inhibition of diverse C. difficile isolates: did not
